Measurements taken from patent publication US12390470B2, “1-methylxanthine-based bioactive composition and method of use thereof” (Ingenious Ingredients, LP, priority 2021, dated 2025).

What was measured:
[1] = system: participants; experiment: Resting energy expenditure, placebo-controlled crossover; assay type: in vivo, human
Method: Two participants were assigned in a randomized, double-blind, placebo-controlled, crossover fashion to ingest a non-energetic placebo (maltodextrin) or a 200 mg dose of 1-methylxanthine (1-MX). All supplements were orally ingested with 8 fluid ounces of cold tap water. Resting Energy Expenditure was measured at baseline, 30, 60, 90, 120 and 180 minutes after ingestion.

[2] = system: participant; experiment: Wakefulness by Visual Analog Scale; assay type: in vivo, human; settings: Person two
Method: One participant ingested a non-energetic placebo (maltodextrin) followed by 200 mg dose of 1-methylxanthine (1-MX) one week later, orally with 8 fluid ounces of cold tap water. Wakefulness was measured by Visual Analog Scale (VAS) at baseline, 30, 60, 90, 120 and 180 minutes after ingestion.

[3] = Organ weight (liver, heart), Example 3; assay type: in vivo; settings: mice, 28 days
Method: (§1) Twenty-four 8-week-old male Swiss Albino mice were housed in an animal room at a constant temperature (22±3° C.) and humidity (30%-70%) under a 12:12 h light-dark cycle with standard laboratory diet (Purina 5L79, Rat and Mouse 18% protein; PMI Nutrition International, Brentwood, MO, USA). Distilled water was provided ad libitum. All animal experiments were reviewed and approved by the Institutional Animal Ethical Committee (IAEC) of Radiant Research Services Pvt. Ltd (Bangalore, India). All research was conducted in accordance with the guidelines of the committee for the purpose of control and supervision of experiments on animals.
(§2) After one week of acclimation, the animals were randomly divided by body weight into three groups (n=8 per group in each test) for oral treatment once a day, at approximately same time each day (±1 hour), for 28 consecutive days: (1) vehicle control or (2) 1-methylxanthine or (3) 1-methylxanthine plus paraxanthine. The dose administered to the mice was calculated using US Food and Drug Administration for human equivalence doses (HED), assuming a human weight of 60 kg. […] Food intake was monitored daily while water intake was ad libitum.

[4] = system: participant; experiment: Concentration by Visual Analog Scale; assay type: in vivo, human; parameters: Concentration (Visual Analog Scale): scale not given here
Method: One participant ingested 200 mg dose of 1-methylxanthine (1-MX) orally with 8 fluid ounces of cold tap water. Concentration was measured by Visual Analog Scale (VAS) at baseline, 30, 60, 90, 120 and 180 minutes after ingestion.

[5] = system: male Swiss Albino mice; experiment: Cook's pole climbing test, scopolamine-induced amnesia; assay type: in vivo
Method: Behavioral studies were conducted in mice to examine the learning and memory ability by using Cook's pole and Passive shock avoidance test.
as §1
as §2, with “7” for “28”, “kg. The following HED was used in this study: 100 mg 1-methylxanthine (Ingenious Ingredients, L.P Lewisville, TX, USA; mouse dose: 20.5 mg/kg bw/day), or 100 mg 1-methylxanthine (Ingenious Ingredients, L.P Lewisville, TX, USA; mouse dose: 20.5 mg/kg bw/day) plus 100 mg paraxanthine (ENFINITY™, Ingenious Ingredients, L.P Lewisville, TX, USA; mouse dose: 20.5 mg/kg bw/day). 0.5% Carboxy Methyl Cellulose sodium was used as vehicle and the test item formulations were prepared daily.” for “kg.”
Mice were trained in such a way that the animal had to climb the pole (shock free zone) within 30 seconds to avoid a shock. […] At particular intervals, 20 trials were given for each animal and average of the shock avoidance and mistakes were recorded. […]

[6] = Person one, time 0, 200 mg oral
[7] = Person two, time 0, 200 mg oral

## Cn1c(=O)[nH]c2nc[nH]c2c1=O [1-methylxanthine, 1-Methyl-3H-purine-2,6-dione]
[1]; Average
  Resting Energy Expenditure MEAN: 1,897 kcals/day
[1]; Person one
  Resting Energy Expenditure MEAN: 2,006 kcals/day
[1]; Person one, 30 min
  Resting Energy Expenditure: 2050 kcals/day
[1]; Person one, 60 min
  Resting Energy Expenditure: 1975 kcals/day
[1]; Person one, 90 min
  Resting Energy Expenditure: 1988 kcals/day
[1]; Person one, 120 min
  Resting Energy Expenditure: 1964 kcals/day
[1]; Person one, 180 min
  Resting Energy Expenditure: 2053 kcals/day
[1]; [6]
  Resting Energy Expenditure: 2017 kcals/day
[1]; Person two
  Resting Energy Expenditure MEAN: 1,788 kcals/day
[1]; Person two, 30 min
  Resting Energy Expenditure: 1789 kcals/day
[1]; Person two, 60 min
  Resting Energy Expenditure: 1790 kcals/day
[1]; Person two, 90 min
  Resting Energy Expenditure: 1777 kcals/day
[1]; Person two, 120 min
  Resting Energy Expenditure: 1912 kcals/day
[1]; Person two, 180 min
  Resting Energy Expenditure: 1670 kcals/day
[1]; [7]
  Resting Energy Expenditure: 1769 kcals/day
[2]
  Wakefulness (VAS) MEAN: 69.0
[2]; 30 min
  Wakefulness (Visual Analog Scale): 65
[2]; 60 min
  Wakefulness (Visual Analog Scale): 65
[2]; 90 min
  Wakefulness (Visual Analog Scale): 65
[2]; 120 min
  Wakefulness (Visual Analog Scale): 75
[2]; 180 min
  Wakefulness (Visual Analog Scale): 75
[2]; time 0, 200 mg oral
  Wakefulness (Visual Analog Scale): 60
[3]
  Heart weight: 188.50 ± 3.12 mg
  Liver weight: 1850.88 ± 39.96 mg
[4]; Average
  Concentration (VAS) MEAN (30-180): 61.2
[4]; Person one
  Concentration (VAS) MEAN (30-180): 54.4
[4]; Person one, 30 min
  Concentration (Visual Analog Scale): 60
[4]; Person one, 60 min
  Concentration (Visual Analog Scale): 61
[4]; Person one, 90 min
  Concentration (Visual Analog Scale): 50
[4]; Person one, 120 min
  Concentration (Visual Analog Scale): 50
[4]; Person one, 180 min
  Concentration (Visual Analog Scale): 51
[4]; [6]
  Concentration (Visual Analog Scale): 50
[4]; Person two
  Concentration (VAS) MEAN (30-180): 68.0
[4]; Person two, 30 min
  Concentration (Visual Analog Scale): 65
[4]; Person two, 60 min
  Concentration (Visual Analog Scale): 65
[4]; Person two, 90 min
  Concentration (Visual Analog Scale): 65
[4]; Person two, 120 min
  Concentration (Visual Analog Scale): 75
[4]; Person two, 180 min
  Concentration (Visual Analog Scale): 70
[4]; [7]
  Concentration (Visual Analog Scale): 65
[5]; Cook's pole
  Escape latency faster than control: 14.9%
[5]; mice, oral 7 days, scopolamine
  Escape latency, Cook's pole climbing test: 10.13 ± 0.83 s
[5]; summary of Cook's pole and passive shock avoidance tests
  Overall outcome on amnesia, memory and learning: showed reversal of amnesia induced by scopolamine and improved memory and learning
